One assay deals with T1, CDK2/CycE (Homo sapiens, UniProt P24941).
T1 construct: purchased ProQinase GmbH (Freiburg, Germany); host or cells: insect cells (Sf9)
In words: CDK2/CycE kinase assay (TR-FRET, 2 mM ATP). In kind it is biochemical. The note with it: 2 mM ATP (high ATP); median; read-out: CDK2/CyclinE, 2 mM ATP (high ATP), IC50 (median). The method, boiled down:
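Biotin-peptide phosphorylation (0.75 µM substrate, 2 mM ATP final, 25 min, 22 °C) by Sf9-expressed GST-CDK2/GST-CycE, after a 15-min compound pre-binding step. Inhibition scaled between enzyme-free (100%) and uninhibited (0%) wells.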
On the technique in general: Time-resolved FRET reads energy transfer from a long-lived donor to a nearby acceptor.

The subject of assay [1] is MDA-MB-231, human breast cancer cells. In words: Proliferation assay MDA-MB-231 (crystal violet, 4 days). In kind it is cell-based. Conditions: Homo sapiens, MDA-MB-231, 96 h, MDA-MB-231 cells, median, read-out: Prolif-MDA MB-231, IC50-[mol/l] (median). Summed up: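 IC50 from a 4-parameter fit of crystal violet absorbance (595 nm), scaled between a day-0 plate (0%) and untreated wells (100%). Cells grown in 10% FCS medium were exposed to test substances at 0.01-10 µmol/L for 4 days, 0.1% DMSO final.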

The target of assay [2] is T2, CDK12 (nuclear staining in CAL-120 cells) (Homo sapiens, UniProt Q9NYV4).
T2 construct: endogenous in cells; host or cells: CAL-120 human breast cancer cells (DSMZ ACC 459)
T2 sequence (Q9NYV4 whole entry): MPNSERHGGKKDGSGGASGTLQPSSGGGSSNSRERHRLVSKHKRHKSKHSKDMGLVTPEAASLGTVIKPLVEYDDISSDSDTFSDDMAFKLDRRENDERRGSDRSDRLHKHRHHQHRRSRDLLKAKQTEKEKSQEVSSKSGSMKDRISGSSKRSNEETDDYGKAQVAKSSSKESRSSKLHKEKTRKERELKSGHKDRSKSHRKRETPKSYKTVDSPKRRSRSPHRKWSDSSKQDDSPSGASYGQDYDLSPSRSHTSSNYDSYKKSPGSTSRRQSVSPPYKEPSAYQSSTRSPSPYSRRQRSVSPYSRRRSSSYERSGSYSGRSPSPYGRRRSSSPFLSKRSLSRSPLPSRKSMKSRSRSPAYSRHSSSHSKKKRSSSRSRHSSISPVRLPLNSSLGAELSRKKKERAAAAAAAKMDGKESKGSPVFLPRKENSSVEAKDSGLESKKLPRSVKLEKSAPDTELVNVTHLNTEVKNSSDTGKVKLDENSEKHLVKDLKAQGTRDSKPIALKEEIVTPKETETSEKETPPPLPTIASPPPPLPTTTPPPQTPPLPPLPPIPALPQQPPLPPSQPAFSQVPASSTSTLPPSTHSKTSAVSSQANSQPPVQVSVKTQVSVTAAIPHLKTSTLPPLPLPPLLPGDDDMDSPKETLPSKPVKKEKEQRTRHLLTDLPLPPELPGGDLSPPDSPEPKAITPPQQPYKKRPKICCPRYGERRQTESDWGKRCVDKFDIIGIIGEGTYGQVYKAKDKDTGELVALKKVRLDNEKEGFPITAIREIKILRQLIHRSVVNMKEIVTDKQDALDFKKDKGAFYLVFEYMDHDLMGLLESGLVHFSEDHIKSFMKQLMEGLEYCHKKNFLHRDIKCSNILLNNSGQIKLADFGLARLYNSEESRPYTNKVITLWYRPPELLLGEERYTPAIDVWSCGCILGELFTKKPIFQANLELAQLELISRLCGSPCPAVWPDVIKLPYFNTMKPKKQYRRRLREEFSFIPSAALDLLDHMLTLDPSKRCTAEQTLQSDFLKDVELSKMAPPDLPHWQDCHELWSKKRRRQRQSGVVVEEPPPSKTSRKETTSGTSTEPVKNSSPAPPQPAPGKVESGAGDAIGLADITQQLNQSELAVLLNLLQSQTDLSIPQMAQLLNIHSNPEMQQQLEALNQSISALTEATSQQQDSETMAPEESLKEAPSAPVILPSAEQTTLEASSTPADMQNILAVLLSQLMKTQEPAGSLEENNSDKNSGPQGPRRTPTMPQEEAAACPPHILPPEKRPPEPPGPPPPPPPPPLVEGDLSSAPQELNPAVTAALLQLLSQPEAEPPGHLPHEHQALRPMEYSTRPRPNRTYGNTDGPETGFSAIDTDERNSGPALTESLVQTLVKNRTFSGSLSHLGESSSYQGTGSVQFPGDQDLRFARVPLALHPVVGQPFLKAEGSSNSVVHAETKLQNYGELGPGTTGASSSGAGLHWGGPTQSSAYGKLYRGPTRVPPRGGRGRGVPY
T2 sequence (O75909 whole entry partner): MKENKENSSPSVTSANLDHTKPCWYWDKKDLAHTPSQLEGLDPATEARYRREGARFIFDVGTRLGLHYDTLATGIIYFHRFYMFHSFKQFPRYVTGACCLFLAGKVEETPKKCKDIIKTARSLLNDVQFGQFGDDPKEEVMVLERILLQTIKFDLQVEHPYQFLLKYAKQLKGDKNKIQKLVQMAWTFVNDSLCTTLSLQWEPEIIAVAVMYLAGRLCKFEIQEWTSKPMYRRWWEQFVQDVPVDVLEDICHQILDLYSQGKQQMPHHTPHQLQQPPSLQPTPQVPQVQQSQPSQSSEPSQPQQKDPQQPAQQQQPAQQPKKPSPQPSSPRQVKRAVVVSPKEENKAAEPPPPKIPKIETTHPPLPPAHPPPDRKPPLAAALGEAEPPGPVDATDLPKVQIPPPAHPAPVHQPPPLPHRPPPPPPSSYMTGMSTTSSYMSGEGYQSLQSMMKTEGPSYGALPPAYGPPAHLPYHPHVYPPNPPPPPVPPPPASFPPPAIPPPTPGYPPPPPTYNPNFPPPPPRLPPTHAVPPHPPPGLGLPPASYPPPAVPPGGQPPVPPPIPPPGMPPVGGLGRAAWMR
In words: CDK12 nuclear protein level: immunofluorescence/high content analysis (CAL-120). In kind it is cell-based. The note with it: for DC50: CAL-120 cells, 24 h, immunofluorescence, 50% reduction of nuclear CDK12 staining intensity, median, read-out: CDK12 degradation IF, DC50- [mol/l] (median); for (IC50 CDK12 high ATP) to (Degradation DC50 CDK12) ratio: ratio of IC50 CDK12 high ATP kinase assay to DC50 CDK12 degradation (IF, CAL-120). The method, boiled down: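 DC50 is the degrader concentration that halves nuclear CDK12 immunofluorescence relative to controls, measured by high-content imaging. CAL-120 cells were exposed to compound for 24 h at 37 °C before PFA fixation, and signal was normalized to DMSO and control wells.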

This is an account of results in patent US20230117034A1, “PYRAZOLOTRIAZINES” (Bayer Aktiengesellschaft, priority 2019, published 2023).

pIC50: −log10 of the molar value. Some results are limits rather than exact numbers.

Regarding `C[C@@H]1CN(c2nc(NCc3nc4ccccc4[nH]3)n3ncc(C4CC4)c3n2)C[C@H](C)N1` [Example 248, N-[(1H-benzimidazol-2-yl)methyl]-8-cyclopropyl-2-[(3R,5S)-3,5-dimethylpiperazin-1-yl]pyrazolo[1,5-a][1,3,5]triazin-4-amine], the pIC50 on CDK2/CycE was less than 4.70. Moreover, the pIC50 in assay [1] was 7.92. In addition, in assay [2], the DC50 is 0.946 nM and the “(IC50 CDK12 high ATP) to (Degradation DC50 CDK12) ratio” value was found to be 9730.
`Brc1cnn2c(NCc3nc4ccccc4[nH]3)nc(N3CCC4(CCN4)CC3)nc12` [Example 291, N-[(1H-benzimidazol-2-yl)methyl]-8-bromo-2-(1,7-diazaspiro[3.5]nonan-7-yl)pyrazolo[1,5-a][1,3,5]triazin-4-amine]: the pIC50 on CDK2/CycE was 5.39; in assay [1], 7.23. Further, the DC50 in assay [2] was 19.2 nM. Further, the “(IC50 CDK12 high ATP) to (Degradation DC50 CDK12) ratio” value in assay [2] was 554.
The matching figures for `c1ccc2[nH]c(CNc3nc(N4C[C@@H]5C[C@H]4CO5)nc4c(C5CC5)cnn34)nc2c1` [Example 254, N-[(1H-benzimidazol-2-yl)methyl]-8-cyclopropyl-2-[(1S,4S)-2-oxa-5-azabicyclo[2.2.1]heptan-5-yl]pyrazolo[1,5-a][1,3,5]triazin-4-amine]: less than 4.70, 6.74, 8.47 nM and more than 2361.
Taken in the same sequence, the figures for `CN(CC1CC1)c1nc(NCc2nc3ccccc3[nH]2)n2ncc(Br)c2n1` [Example 287, N^4-[(1H-benzimidazol-2-yl)methyl]-8-bromo-N^2-(cyclopropylmethyl)-N^2-methylpyrazolo[1,5-a][1,3,5]triazine-2,4-diamine] were 5.02, 7.46, 101 nM and 106.
The matching figures for `CN1CCN(c2nc(NCc3nc4cc(F)c(Cl)cc4[nH]3)n3ncc(C4CC4)c3n2)CC1` [Example 309, N-[(6-chloro-5-fluoro-1H-benzimidazol-2-yl)methyl]-8-cyclopropyl-2-(4-methylpiperazin-1-yl)pyrazolo[1,5-a][1,3,5]triazin-4-amine]: less than 4.70, 8.20, 8.53 nM and more than 2346.
As to `COc1cccc2[nH]c(CNc3nc(N4CCOCC4)nc4c(CC(F)(F)F)cnn34)nc12` [Example 277, N-[(4-methoxy-1H-benzimidazol-2-yl)methyl]-2-(morpholin-4-yl)-8-(2,2,2-trifluoroethyl)pyrazolo[1,5-a][1,3,5]triazin-4-amine], on CDK2/CycE, the pIC50 is less than 4.70. The pIC50 in assay [1] was 7.40. In assay [2], the DC50 is 4.48 nM and the “(IC50 CDK12 high ATP) to (Degradation DC50 CDK12) ratio” value is listed as 1071.
The matching figures for `Cc1cc2nc(CNc3nc(N4CCN(C)CC4)nc4c(C5CC5)cnn34)[nH]c2cc1C` [Example 312, 8-cyclopropyl-N-[(5,6-dimethyl-1H-benzimidazol-2-yl)methyl]-2-(4-methylpiperazin-1-yl)pyrazolo[1,5-a][1,3,5]triazin-4-amine]: less than 4.90, 8.49, 3.9 nM and 2616.
The matching figures for `FC(F)(F)Cc1cnn2c(NCc3nc4ccccc4[nH]3)nc(N3CCOCC3)nc12.O=CO` [Example 265, formic acid-N-[(1H-benzimidazol-2-yl)methyl]-2-(morpholin-4-yl)-8-(2,2,2-trifluoroethyl)pyrazolo[1,5-a][1,3,5]triazin-4-amine (1/1)]: less than 4.70, 6.97, 7.23 nM and more than 2310.
The matching figures for `CN1CCN(c2nc(NCc3nc4cc(F)c(F)cc4[nH]3)n3ncc(C4CC4)c3n2)CC1` [Example 311, 8-cyclopropyl-N-[(5,6-difluoro-1H-benzimidazol-2-yl)methyl]-2-(4-methylpiperazin-1-yl)pyrazolo[1,5-a][1,3,5]triazin-4-amine]: less than 4.70, 7.78, 6.15 nM and more than 3251.
Regarding `Fc1cccc2[nH]c(CNc3nc(N4CCOCC4)nc4c(CC(F)(F)F)cnn34)nc12` [Example 303, N-[(4-fluoro-1H-benzimidazol-2-yl)methyl]-2-(morpholin-4-yl)-8-(2,2,2-trifluoroethyl)pyrazolo[1,5-a][1,3,5]triazin-4-amine], the pIC50 on CDK2/CycE was less than 4.70. Also, the pIC50 in assay [1] was 7.58. In assay [2], the DC50 was 11 nM and the “(IC50 CDK12 high ATP) to (Degradation DC50 CDK12) ratio” value amounted to 155.
The matching figures for `CN1CCN(c2nc(NCc3nc4ccccc4[nH]3)n3ncc(Br)c3n2)C(CO)C1` (single isomer, unassigned) [Example 280, [(2R or S)-1-(4-{[(1H-benzimidazol-2-yl)methyl]amino}-8-bromopyrazolo[1,5-a][1,3,5]triazin-2-yl)-4-methylpiperazin-2-yl]methanol]: 4.76, 6.64, 21.4 nM and 678.
Taken in the same sequence, the figures for `N[C@H]1[C@@H]2C[C@H]1CN(c1nc(NCc3nc4ccccc4[nH]3)n3ncc(Br)c3n1)C2` [Example 288, 2-[(1R,5S,6r)-6-amino-3-azabicyclo[3.1.1]heptan-3-yl]-N-[(1H-benzimidazol-2-yl)methyl]-8-bromopyrazolo[1,5-a][1,3,5]triazin-4-amine] were 5.58, 8.25, 1.16 nM and 2920.
The matching figures for `N[C@@H]1CCN(c2nc(NCc3nc4ccccc4[nH]3)n3ncc(Br)c3n2)C1` [Example 250, 2-[(3R)-3-aminopyrrolidin-1-yl]-N-[(1H-benzimidazol-2-yl)methyl]-8-bromopyrazolo[1,5-a][1,3,5]triazin-4-amine]: 4.89, 7.46, 3.16 nM and 3560.
In the case of `Brc1cnn2c(NCc3nc4ccncc4[nH]3)nc(N3CCOCC3)nc12` [Example 22, 8-bromo-N-[(3H-imidazo[4,5-c]pyridin-2-yl)methyl]-2-(morpholin-4-yl)pyrazolo[1,5-a][1,3,5]triazin-4-amine], on CDK2/CycE, the pIC50 is 4.81. The pIC50 in assay [1] was 6.23. Further, in assay [2], the DC50 stood at 99 nM and the “(IC50 CDK12 high ATP) to (Degradation DC50 CDK12) ratio” value is given as 40.
On to `CN1CCN(c2nc(NCc3nc4ccccc4[nH]3)n3ncc(C(F)(F)F)c3n2)CC1` [Example 297, N-[(1H-benzimidazol-2-yl)methyl]-2-(4-methylpiperazin-1-yl)-8-(trifluoromethyl)pyrazolo[1,5-a][1,3,5]triazin-4-amine], for which the pIC50 on CDK2/CycE is 4.88. In addition, in assay [1], the pIC50 is 7.11. Besides, in assay [2], the DC50 was found to be 7.59 nM and the “(IC50 CDK12 high ATP) to (Degradation DC50 CDK12) ratio” value turned out to be 2294.
Consider `FC(F)(F)Cc1cnn2c(NCc3nc4cc(Cl)c(Cl)cc4[nH]3)nc(N3CCOCC3)nc12` [Example 302, N-[(5,6-dichloro-1H-benzimidazol-2-yl)methyl]-2-(morpholin-4-yl)-8-(2,2,2-trifluoroethyl)pyrazolo[1,5-a][1,3,5]triazin-4-amine], for which the results for the pIC50 (on CDK2/CycE; in assay [1]) were less than 4.70 and 7.92, respectively. In assay [2], the “(IC50 CDK12 high ATP) to (Degradation DC50 CDK12) ratio” value is 557.
`N[C@H]1CN(c2nc(NCc3nc4ccccc4[nH]3)n3ncc(Br)c3n2)CC12CC2` [Example 259, 2-[(7R)-7-amino-5-azaspiro[2.4]heptan-5-yl]-N-[(1H-benzimidazol-2-yl)methyl]-8-bromopyrazolo[1,5-a][1,3,5]triazin-4-amine]: at CDK2/CycE, the pIC50 was 5.85. In addition, the pIC50 in assay [1] was 7.50. Also, in assay [2], the DC50 was determined as 7.16 nM and the “(IC50 CDK12 high ATP) to (Degradation DC50 CDK12) ratio” value turned out to be 362.
Taken in the same sequence, the figures for `Brc1cnn2c(NCc3nc4ccccc4[nH]3)nc(N3C[C@H]4CN[C@H]4C3)nc12.O=C(O)C(F)(F)F` [Example 255, trifluoroacetic acid-N-[(1H-benzimidazol-2-yl)methyl]-8-bromo-2-[(1R,5R)-3,6-diazabicyclo[3.2.0]heptan-3-yl]pyrazolo[1,5-a][1,3,5]triazin-4-amine (1/1)] were less than 4.70, 7.21, 19.2 nM and more than 1044.
